ChEMBL document CHEMBL1143693, “Cancer chemopreventive effects of cycloartane-type and related triterpenoids in in vitro and in vivo models” (J Nat Prod, 2007)

Test system: Human gammaherpesvirus 4
Experiment: Inhibition of TPA-induced Epstein-Barr virus early antigen activation assessed as EBV-EA induction in Raji cells at 32 nM after 48 hrs relative to TPA; values are per cent of control
Settings: human gammaherpesvirus 4, Raji

SMILES	level, % of control at 0.032 µM
CC(C)CCC[C@@H](C)[C@H]1CC[C@@]2(C)[C@@H]3CC[C@H]4[C@H](C)[C@@H](O)CC[C@@]45C[C@@]35CC[C@]12C	31.5%
CC(=O)[C@H]1CC[C@@]2(C)[C@@H]3CC[C@H]4C(C)(C)C(=O)CC[C@@]45C[C@@]35CC[C@]12C	22.1%
C/C(=C\C[C@@H](C)[C@H]1CC[C@@]2(C)[C@@H]3CC[C@H]4C(C)(C)[C@@H](O)CC[C@@]45C[C@@]35CC[C@]12C)C(C)C [(23E)-CYCLOSADOL]	31.4%
CC(C)CCC[C@@H](C)[C@@H]1CC[C@@]2(C)[C@@H]3CC[C@H]4C(C)(C)[C@@H](O)CC[C@@]45C[C@@]35CC[C@]12C	30.8%
CC(C)=C(C)CC[C@@H](C)[C@H]1CC[C@@]2(C)[C@@H]3CC[C@H]4C(C)(C)[C@@H](O)CC[C@@]45C[C@@]35CC[C@]12C [CYCLOBRANOL]	30.5%
COC(CC[C@@H](C)[C@H]1CC[C@@]2(C)[C@@H]3CC[C@H]4C(C)(C)C(=O)CC[C@@]45C[C@@]35CC[C@]12C)C(C)(C)O (some centres not stated)	21%

Test system: Human gammaherpesvirus 4
Experiment: Inhibition of TPA-induced Epstein-Barr virus early antigen activation assessed as EBV-EA induction in Raji cells at 320 nM after 48 hrs relative to TPA; values are per cent of control
Settings: human gammaherpesvirus 4, Raji

SMILES	level, % of control at 0.32 µM
CC(C)CCC[C@@H](C)[C@H]1CC[C@@]2(C)[C@@H]3CC[C@H]4[C@H](C)[C@@H](O)CC[C@@]45C[C@@]35CC[C@]12C	0%
CC(=O)[C@H]1CC[C@@]2(C)[C@@H]3CC[C@H]4C(C)(C)C(=O)CC[C@@]45C[C@@]35CC[C@]12C	0%
C/C(=C\C[C@@H](C)[C@H]1CC[C@@]2(C)[C@@H]3CC[C@H]4C(C)(C)[C@@H](O)CC[C@@]45C[C@@]35CC[C@]12C)C(C)C [(23E)-CYCLOSADOL]	0%
CC(C)CCC[C@@H](C)[C@@H]1CC[C@@]2(C)[C@@H]3CC[C@H]4C(C)(C)[C@@H](O)CC[C@@]45C[C@@]35CC[C@]12C	0%
CC(C)=C(C)CC[C@@H](C)[C@H]1CC[C@@]2(C)[C@@H]3CC[C@H]4C(C)(C)[C@@H](O)CC[C@@]45C[C@@]35CC[C@]12C [CYCLOBRANOL]	0%
COC(CC[C@@H](C)[C@H]1CC[C@@]2(C)[C@@H]3CC[C@H]4C(C)(C)C(=O)CC[C@@]45C[C@@]35CC[C@]12C)C(C)(C)O (some centres not stated)	0%

Test system: not listed separately
Experiment: Scavenging activity against NO generation in human Chang liver cells assessed as inhibition of NOR1-activation at 350 nM relative to NOR1
Assay type: functional
Settings: not given

SMILES	Activity
CC(C)CCC[C@@H](C)[C@H]1CC[C@@]2(C)[C@@H]3CC[C@H]4[C@H](C)[C@@H](O)CC[C@@]45C[C@@]35CC[C@]12C	1.5
CC(=O)[C@H]1CC[C@@]2(C)[C@@H]3CC[C@H]4C(C)(C)C(=O)CC[C@@]45C[C@@]35CC[C@]12C	1.5
C/C(=C\C[C@@H](C)[C@H]1CC[C@@]2(C)[C@@H]3CC[C@H]4C(C)(C)[C@@H](O)CC[C@@]45C[C@@]35CC[C@]12C)C(C)C [(23E)-CYCLOSADOL]	2
CC(C)CCC[C@@H](C)[C@@H]1CC[C@@]2(C)[C@@H]3CC[C@H]4C(C)(C)[C@@H](O)CC[C@@]45C[C@@]35CC[C@]12C	1.6
CC(C)=C(C)CC[C@@H](C)[C@H]1CC[C@@]2(C)[C@@H]3CC[C@H]4C(C)(C)[C@@H](O)CC[C@@]45C[C@@]35CC[C@]12C [CYCLOBRANOL]	1.9
COC(CC[C@@H](C)[C@H]1CC[C@@]2(C)[C@@H]3CC[C@H]4C(C)(C)C(=O)CC[C@@]45C[C@@]35CC[C@]12C)C(C)(C)O (some centres not stated)	1.9

Test system: Human gammaherpesvirus 4
Experiment: Inhibition of TPA-induced Epstein-Barr virus early antigen activation assessed as EBV-EA induction in Raji cells at 0.32 nM after 48 hrs relative to TPA; values are per cent of control
Settings: human gammaherpesvirus 4, Raji

SMILES	level, % of control at 0.00032 µM
CC(C)CCC[C@@H](C)[C@H]1CC[C@@]2(C)[C@@H]3CC[C@H]4[C@H](C)[C@@H](O)CC[C@@]45C[C@@]35CC[C@]12C	95.6%
CC(=O)[C@H]1CC[C@@]2(C)[C@@H]3CC[C@H]4C(C)(C)C(=O)CC[C@@]45C[C@@]35CC[C@]12C	94.6%
C/C(=C\C[C@@H](C)[C@H]1CC[C@@]2(C)[C@@H]3CC[C@H]4C(C)(C)[C@@H](O)CC[C@@]45C[C@@]35CC[C@]12C)C(C)C [(23E)-CYCLOSADOL]	95.2%
CC(C)CCC[C@@H](C)[C@@H]1CC[C@@]2(C)[C@@H]3CC[C@H]4C(C)(C)[C@@H](O)CC[C@@]45C[C@@]35CC[C@]12C	94.2%
CC(C)=C(C)CC[C@@H](C)[C@H]1CC[C@@]2(C)[C@@H]3CC[C@H]4C(C)(C)[C@@H](O)CC[C@@]45C[C@@]35CC[C@]12C [CYCLOBRANOL]	94.5%
COC(CC[C@@H](C)[C@H]1CC[C@@]2(C)[C@@H]3CC[C@H]4C(C)(C)C(=O)CC[C@@]45C[C@@]35CC[C@]12C)C(C)(C)O (some centres not stated)	94.6%

Test system: Raji
Experiment: Cell viability of Raji cells at 320 nM
Assay type: functional, Homo sapiens
Settings: not given

SMILES	Activity
CC(C)CCC[C@@H](C)[C@H]1CC[C@@]2(C)[C@@H]3CC[C@H]4[C@H](C)[C@@H](O)CC[C@@]45C[C@@]35CC[C@]12C	70%
CC(=O)[C@H]1CC[C@@]2(C)[C@@H]3CC[C@H]4C(C)(C)C(=O)CC[C@@]45C[C@@]35CC[C@]12C	70%
C/C(=C\C[C@@H](C)[C@H]1CC[C@@]2(C)[C@@H]3CC[C@H]4C(C)(C)[C@@H](O)CC[C@@]45C[C@@]35CC[C@]12C)C(C)C [(23E)-CYCLOSADOL]	70%
CC(C)CCC[C@@H](C)[C@@H]1CC[C@@]2(C)[C@@H]3CC[C@H]4C(C)(C)[C@@H](O)CC[C@@]45C[C@@]35CC[C@]12C	70%
CC(C)=C(C)CC[C@@H](C)[C@H]1CC[C@@]2(C)[C@@H]3CC[C@H]4C(C)(C)[C@@H](O)CC[C@@]45C[C@@]35CC[C@]12C [CYCLOBRANOL]	70%
COC(CC[C@@H](C)[C@H]1CC[C@@]2(C)[C@@H]3CC[C@H]4C(C)(C)C(=O)CC[C@@]45C[C@@]35CC[C@]12C)C(C)(C)O (some centres not stated)	70%

Test system: Human gammaherpesvirus 4
Experiment: Inhibition of TPA-induced Epstein-Barr virus early antigen activation assessed as EBV-EA induction in Raji cells at 3.2 nM after 48 hrs relative to TPA; values are per cent of control
Settings: human gammaherpesvirus 4, Raji

SMILES	level, % of control at 0.0032 µM
CC(C)CCC[C@@H](C)[C@H]1CC[C@@]2(C)[C@@H]3CC[C@H]4[C@H](C)[C@@H](O)CC[C@@]45C[C@@]35CC[C@]12C	72.6%
CC(=O)[C@H]1CC[C@@]2(C)[C@@H]3CC[C@H]4C(C)(C)C(=O)CC[C@@]45C[C@@]35CC[C@]12C	70.3%
C/C(=C\C[C@@H](C)[C@H]1CC[C@@]2(C)[C@@H]3CC[C@H]4C(C)(C)[C@@H](O)CC[C@@]45C[C@@]35CC[C@]12C)C(C)C [(23E)-CYCLOSADOL]	72.8%
CC(C)CCC[C@@H](C)[C@@H]1CC[C@@]2(C)[C@@H]3CC[C@H]4C(C)(C)[C@@H](O)CC[C@@]45C[C@@]35CC[C@]12C	71.2%
CC(C)=C(C)CC[C@@H](C)[C@H]1CC[C@@]2(C)[C@@H]3CC[C@H]4C(C)(C)[C@@H](O)CC[C@@]45C[C@@]35CC[C@]12C [CYCLOBRANOL]	71.3%
COC(CC[C@@H](C)[C@H]1CC[C@@]2(C)[C@@H]3CC[C@H]4C(C)(C)C(=O)CC[C@@]45C[C@@]35CC[C@]12C)C(C)(C)O (some centres not stated)	67.1%

Test system: Human gammaherpesvirus 4
Experiment: Inhibition of TPA-induced Epstein-Barr virus early antigen activation in Raji cells after 48 hrs
Assay type: functional, organism-based
Settings: human gammaherpesvirus 4, Raji

SMILES	IC50
CC(C)CCC[C@@H](C)[C@H]1CC[C@@]2(C)[C@@H]3CC[C@H]4[C@H](C)[C@@H](O)CC[C@@]45C[C@@]35CC[C@]12C	9.9 nM
CC(=O)[C@H]1CC[C@@]2(C)[C@@H]3CC[C@H]4C(C)(C)C(=O)CC[C@@]45C[C@@]35CC[C@]12C	8.9 nM
C/C(=C\C[C@@H](C)[C@H]1CC[C@@]2(C)[C@@H]3CC[C@H]4C(C)(C)[C@@H](O)CC[C@@]45C[C@@]35CC[C@]12C)C(C)C [(23E)-CYCLOSADOL]	9.9 nM
CC(C)CCC[C@@H](C)[C@@H]1CC[C@@]2(C)[C@@H]3CC[C@H]4C(C)(C)[C@@H](O)CC[C@@]45C[C@@]35CC[C@]12C	9.4 nM
CC(C)=C(C)CC[C@@H](C)[C@H]1CC[C@@]2(C)[C@@H]3CC[C@H]4C(C)(C)[C@@H](O)CC[C@@]45C[C@@]35CC[C@]12C [CYCLOBRANOL]	9.4 nM
COC(CC[C@@H](C)[C@H]1CC[C@@]2(C)[C@@H]3CC[C@H]4C(C)(C)C(=O)CC[C@@]45C[C@@]35CC[C@]12C)C(C)(C)O (some centres not stated)	8.8 nM
